Test results taken from patent publication US11957687B2 (REGENERON PHARMACEUTICALS, INC., priority 2019, dated 2024).

Legend:
[1] = Microsome stability assay, human liver microsomes; format: in vitro ADME; conditions: 1 μM compound, 0.5 mg/mL microsomal protein; for microsomal CLint at 1 h, 1 µM / half-life at 1 h, 1 µM / microsomal CLint at 1 μM / half-life at 1 μM: human, human liver microsomes, pooled, NADPH, 37° C.; for microsomal CLint at 1 h, 1 µM / microsomal CLint at 1 μM: read-out: Microsome Stability Human liver microsomes Cl; for half-life at 1 h, 1 µM / half-life at 1 μM: read-out: Microsome Stability Human liver microsomes T½
Summary of the method: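 Compound at 1 μM incubated at 37° C with pooled human or mouse liver microsomes (0.5 mg/mL protein) plus NADPH regenerating system, sampled at 0–60 min; a 60-min no-NADPH incubation also included. Single replicate; LC/MS/MS disappearance from analyte/internal standard peak area ratios, without standard curve.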

HSD17B2 = HSD17B2 (Homo sapiens (Human), UniProt P37059); test: HSD17B2 enzymatic blocking assay; format: biochemical; conditions: 1.8 μM Estradiol, 650 μM NAD; read-out: Inhibition of HSD17B2 IC50
Chain of HSD17B2 (P37059 other isoform, or with tags, fused parts or gaps): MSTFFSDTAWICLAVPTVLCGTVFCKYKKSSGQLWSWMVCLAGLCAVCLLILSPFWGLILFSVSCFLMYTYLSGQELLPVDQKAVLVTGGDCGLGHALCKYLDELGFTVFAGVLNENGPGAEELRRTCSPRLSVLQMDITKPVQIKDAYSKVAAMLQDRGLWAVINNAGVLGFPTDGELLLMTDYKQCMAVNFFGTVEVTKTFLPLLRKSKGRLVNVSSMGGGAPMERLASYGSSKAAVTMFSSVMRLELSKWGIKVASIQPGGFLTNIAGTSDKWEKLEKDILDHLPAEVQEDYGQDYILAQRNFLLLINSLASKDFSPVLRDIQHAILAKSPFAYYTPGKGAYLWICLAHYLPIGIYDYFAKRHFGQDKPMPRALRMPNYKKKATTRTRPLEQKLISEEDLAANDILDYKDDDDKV
Description: To screen compounds of the disclosure for their ability to block HSD17B2 function, an enzymatic blocking assay was performed. For the assay, HSD17B2 activity was measured by detecting NADH formation from oxidation of Estradiol using a NADH Glo luminescence assay (Promega, #Cat. No. G9062). Compounds of the disclosure were evaluated in a dose titration assay where the compounds were titrated at 10-point dose curve using an Echo-555 liquid handling dispenser. HSD17B2 (SEQ ID NO: 3, expressed in mammalian cells) was added at a final concentration of 2 ng/μL in a buffer containing 50 mM Tris-HCl, pH 7.5, Pluronic F-127 0.05%, Tween20 0.01%, BSA 0.01% into a low volume white 384-well assay plate. Compounds were incubated with the enzyme for 15 min at 20° C. The assay reaction was then initiated by addition of 1.8 μM Estradiol substrate (Sigma, catalog #E2758-250MG, CAS: 50-28-2) and 650 μM NAD co-factor, and the reaction mixture was incubated for 45 min at 20° C. DMSO at a concentration of 0.5% was used as a negative control and a ‘no substrate’ control was used a positive control in the assay. Detection reagent was then added as per manufacturer's instructions, and the plate was subsequently incubated in the dark for 1 hour at room temperature, NADH generated was detected in the luminescence mode on the Envision Perkin Elmer plate reader. The IC50 values were determined using Dotmatics analysis software.

HSD17B13 = HSD17B13 (Homo sapiens (Human), UniProt Q7Z5P4); test: HSD17B13 enzymatic inhibition assay (150 nM or 50 nM HSD17B13); format: biochemical; conditions: 50 nM HSD17B13; read-out: Inhibition of 50 nM of HSD17B13 IC50
Chain of HSD17B13 (Q7Z5P4 other isoform, or with tags, fused parts or gaps): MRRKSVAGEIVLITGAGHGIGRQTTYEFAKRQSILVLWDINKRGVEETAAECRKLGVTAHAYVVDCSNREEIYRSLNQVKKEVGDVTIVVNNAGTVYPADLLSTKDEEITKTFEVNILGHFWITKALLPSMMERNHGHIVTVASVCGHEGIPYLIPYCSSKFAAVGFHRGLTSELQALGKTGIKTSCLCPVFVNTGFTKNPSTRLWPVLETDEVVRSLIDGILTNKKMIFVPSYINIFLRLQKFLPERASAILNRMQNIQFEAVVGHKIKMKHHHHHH

[2] = Microsome stability assay, mouse liver microsomes; format: in vitro ADME; conditions: 1 μM compound, 0.5 mg/mL microsomal protein
Description: Compounds of the disclosure were screened in microsome stability assays. For the screen, test compounds were incubated at 37° C. with either human liver microsomes (Corning; #452117) or mouse liver microsomes (XenoTech; #M1000), pooled from multiple donors, at 1 μM in the presence of a NADPH regenerating system at 0.5 mg/mL microsomal protein. Positive controls included in the assay were testosterone (3A4 substrate), propafenone (2D6) and diclofenac (2C9). Samples were removed at different time points (0, 5, 10, 20, 30 and 60 minutes) and immediately mixed with cold acetonitrile containing internal standard (IS, 200 ng/mL tolbutamide and 200 ng/mL labetalol). Test compounds incubated with microsomes for 60 minutes without the NADPH regenerating system was also included. A single point for each test condition (n=1) was obtained, and samples were analyzed by LC/MS/MS. Disappearance of the test compound was assessed based on peak area ratios of analyte/IS (no standard curve).

HSD17B1 = HSD17B1 (Homo sapiens (Human), UniProt P14061); test: HSD17B1 enzymatic blocking assay; format: biochemical; conditions: 25 μM Estradiol, 500 μM NAD; read-out: Inhibition of HSD17B1 IC50
Chain of HSD17B1 (P14061 other isoform, or with tags, fused parts or gaps): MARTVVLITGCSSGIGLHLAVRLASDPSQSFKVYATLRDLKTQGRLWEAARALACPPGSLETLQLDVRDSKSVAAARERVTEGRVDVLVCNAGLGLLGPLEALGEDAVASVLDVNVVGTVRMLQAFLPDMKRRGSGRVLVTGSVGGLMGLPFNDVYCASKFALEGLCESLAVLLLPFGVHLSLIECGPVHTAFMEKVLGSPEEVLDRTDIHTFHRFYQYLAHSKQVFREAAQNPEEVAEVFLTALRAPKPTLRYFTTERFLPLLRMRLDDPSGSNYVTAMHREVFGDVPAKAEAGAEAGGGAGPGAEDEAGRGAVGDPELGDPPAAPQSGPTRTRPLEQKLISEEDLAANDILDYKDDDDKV
Description: To screen compounds of the disclosure for their ability to block HSD17B1 function, an enzymatic blocking assay was performed. For the assay, HSD17B1 activity was measured by detecting NADH formation from oxidation of Estradiol using a NADH Glo luminescence assay (Promega, #Cat. No. G9062). […] Compounds were incubated with the enzyme for 30 minutes at room temperature. […] DMSO at a concentration of 0.5% was used as a negative control and a ‘no substrate’ control was used a positive control in the assay. Detection reagent was then added as per manufacturer's instructions, and the plate was subsequently incubated in the dark for 1 hour at room temperature, NADH generated was detected in the luminescence mode on the Envision Perkin Elmer plate reader. The IC50 values were determined using Dotmatics analysis software.

Row | Microsome Stability Human liver microsomes % Remaining @60 min [1] | microsomal CLint at 1 h, 1 µM [1] | half-life at 1 h, 1 µM [1] | IC50 (HSD17B2) | IC50 (HSD17B13) | microsomal CLint at 1 μM [1] | half-life at 1 μM [1] | Microsome Stability Mouse liver microsomes % Remaining @60 min ([2]; 60 min) | microsomal CLint at 1 h, 1 µM ([2]; mouse, mouse liver microsomes, pooled, NADPH, 37° C., read-out: Microsome Stability Mouse liver microsomes Cl) | half-life at 1 h, 1 µM ([2]; mouse, mouse liver microsomes, pooled, NADPH, 37° C., read-out: Microsome Stability Mouse liver microsomes T½) | IC50 (HSD17B1) | Compound
1 | 1.00% | 176 µL/min/mg | 7.87 min | 14.5 µM | 0.53 µM | – | – | – | – | – | – | O=C(NC1c2ccccc2Oc2ccccc21)c1ccc(C(F)(F)F)[nH]c1=O [Compound 1A, 2-oxo-6-(trifluoromethyl)-N-(9H-xanthen-9-yl)-1,2-dihydropyridine-3-carboxamide]
2 | 1.12% | 156 µL/min/mg | 8.86 min | 11.7 µM | 0.55 µM | – | – | – | – | – | – | CCc1ccc(C(NC(=O)c2ccc(C(F)(F)F)[nH]c2=O)c2ccccc2)cc1 (stereo not drawn) [Compound 4A, N-((4-ethylphenyl)(phenyl)methyl)-2-oxo-6-(trifluoromethyl)-1,2-dihydropyridine-3-carboxamide]
3 | – | – | – | 23.7 µM | 0.56 µM | – | – | – | – | – | > 30 µM | N#Cc1ccc(C(NC(=O)c2ccc(C(F)(F)F)[nH]c2=O)c2ccccc2)cc1 (stereo not drawn) [Compound 12A, N-((4-cyanophenyl)(phenyl)methyl)-2-oxo-6-(trifluoromethyl)-1,2-dihydropyridine-3-carboxamide]
4 | 8.05% | 88.6 µL/min/mg | 15.6 min | 13.2 µM | 0.99 µM | – | – | – | – | – | – | O=C(NC(Cc1ccccc1)c1ccc(Cl)cc1)c1ccc(C(F)(F)F)[nH]c1=O (stereo not drawn) [Compound 19A, N-(1-(4-chlorophenyl)-2-phenylethyl)-2-oxo-6-(trifluoromethyl)-1,2-dihydropyridine-3-carboxamide]
5 | – | – | – | 2.27 µM | 1.56 µM | – | – | – | – | – | – | COc1ccc(C(C)(NC(=O)c2ccc(C(F)(F)F)[nH]c2=O)c2ccc(OC)cc2)cc1 [Compound 20A, N-(1,1-bis(4-methoxyphenyl)ethyl)-2-oxo-6-(trifluoromethyl)-1,2-dihydropyridine-3-carboxamide]

The remaining lines, values behind:

Row | Compound | Microsome Stability Human liver microsomes % Remaining @60 min [1] | microsomal CLint at 1 h, 1 µM [1] | half-life at 1 h, 1 µM [1] | IC50 (HSD17B2) | IC50 (HSD17B13) | microsomal CLint at 1 μM [1] | half-life at 1 μM [1] | Microsome Stability Mouse liver microsomes % Remaining @60 min ([2]; 60 min) | microsomal CLint at 1 h, 1 µM ([2]; mouse, mouse liver microsomes, pooled, NADPH, 37° C., read-out: Microsome Stability Mouse liver microsomes Cl) | half-life at 1 h, 1 µM ([2]; mouse, mouse liver microsomes, pooled, NADPH, 37° C., read-out: Microsome Stability Mouse liver microsomes T½) | IC50 (HSD17B1)
6 | O=C(NC(c1ccccc1)c1ccc(CC(F)(F)F)cc1)c1ccc(C(F)(F)F)[nH]c1=O (stereo not drawn) [Compound 12, 2-oxo-N-(phenyl(4-(2,2,2-trifluoroethyl)phenyl)methyl)-6-(trifluoromethyl)-1,2-dihydropyridine-3-carboxamide] | 84.70% | – | – | 15.6 µM | 0.39 µM | < 9.6 µL/min/mg | > 145 min | 56.90% | 18.6 µL/min/mg | 74.5 min | –
7 | O=C(NC(c1ccc(C(F)(F)F)cc1)c1ccc(C(F)(F)F)cc1)c1ccc(C(F)(F)F)[nH]c1=O [Compound 14, N-(bis(4-(trifluoromethyl)phenyl)methyl)-2-oxo-6-(trifluoromethyl)-1,2-dihydropyridine-3-carboxamide] | 100.00% | – | – | 14.2 µM | 2.81 µM | < 9.6 µL/min/mg | > 145 min | – | – | – | –
8 | O=C(NC(c1ccccc1)c1ccc(O)cc1)c1ccc(C(F)(F)F)[nH]c1=O (stereo not drawn) [Compound 19, N-((4-hydroxyphenyl)(phenyl)methyl)-2-oxo-6-(trifluoromethyl)-1,2-dihydropyridine-3-carboxamide] | 49.80% | 20.2 µL/min/mg | 68.6 min | 33.6 µM | 1.91 µM | – | – | – | – | – | –
9 | O=C(NC(c1ccc(OC(F)F)cc1)c1ccc(OC(F)F)cc1)c1ccc(C(F)(F)F)[nH]c1=O [Compound 22, N-(bis(4-(difluoromethoxy)phenyl)methyl)-2-oxo-6-(trifluoromethyl)-1,2-dihydropyridine-3-carboxamide] | – | – | – | 12.8 µM | 0.89 µM | – | – | – | – | – | –
10 | COc1ccc(C(NC(=O)c2ccc(C(F)(F)F)[nH]c2=O)c2ccc(OC)cc2)cc1 [Compound 24, N-(bis(4-methoxyphenyl)methyl)-2-oxo-6-(trifluoromethyl)-1,2-dihydropyridine-3-carboxamide] | 2.00% | 131 µL/min/mg | 10.6 min | 20.6 µM | 0.6 µM | – | – | – | – | – | –
11 | COc1ccc(C(NC(=O)c2ccc(C(F)(F)F)[nH]c2=O)c2ccccc2)cc1 (stereo not drawn) [Compound 26, N-((4-methoxyphenyl)(phenyl)methyl)-2-oxo-6-(trifluoromethyl)-1,2-dihydropyridine-3-carboxamide] | 16.00% | 62.4 µL/min/mg | 22.2 min | 22.7 µM | 1.2 µM | – | – | – | – | – | –
12 | O=C(NC(c1ccccc1)c1ccc(C(F)(F)F)cc1)c1ccc(C(F)(F)F)[nH]c1=O (stereo not drawn) [Compound 28, N-(phenyl(4-(trifluoromethyl)phenyl)methyl)-2-oxo-6-(trifluoromethyl)-1,2-dihydropyridine-3-carboxamide] | 94.00% | – | – | 12.6 µM | 1.3 µM | < 9.6 µL/min/mg | > 145 min | – | – | – | –
13 | Cc1ccc2c(c1)-c1cc(C)ccc1C2NC(=O)c1ccc(C(F)(F)F)[nH]c1=O [Compound 43, N-(3,6-dimethyl-9H-fluoren-9-yl)-2-oxo-6-(trifluoromethyl)-1,2-dihydropyridine-3-carboxamide] | 31.30% | 39.8 µL/min/mg | 34.8 min | 6.59 µM | 0.49 µM | – | – | – | – | – | –
14 | O=C(NC1c2ccc(F)cc2-c2cc(F)ccc21)c1ccc(C(F)(F)F)[nH]c1=O [Compound 44, N-(3,6-difluoro-9H-fluoren-9-yl)-2-oxo-6-(trifluoromethyl)-1,2-dihydropyridine-3-carboxamide] | – | – | – | 12.8 µM | 0.53 µM | – | – | – | – | – | –
15 | COc1ccc2c(c1)-c1cc(OC)ccc1C2NC(=O)c1ccc(C(F)(F)F)[nH]c1=O [Compound 46, N-(3,6-dimethoxy-9H-fluoren-9-yl)-2-oxo-6-(trifluoromethyl)-1,2-dihydropyridine-3-carboxamide] | – | – | – | 38.1 µM | 1.07 µM | – | – | – | – | – | –
16 | O=C(NC1CCc2ccccc21)c1ccc(C(F)(F)F)[nH]c1=O (stereo not drawn) [Compound 63, N-(2,3-dihydro-1H-inden-1-yl)-2-oxo-6-(trifluoromethyl)-1,2-dihydropyridine-3-carboxamide] | – | – | – | > 100 µM | 3.68 µM | – | – | – | – | – | –
17 | O=C(NC1c2ccccc2Oc2ccc(C3CC3)cc21)c1ccc(C(F)(F)F)[nH]c1=O (stereo not drawn) [Compound 161, N-(2-cyclopropyl-9H-xanthen-9-yl)-2-oxo-6-(trifluoromethyl)-1,2-dihydropyridine-3-carboxamide] | – | – | – | 8.22 µM | 0.27 µM | – | – | – | – | – | 9.16 µM
18 | CCc1cc(C(=O)NC2c3ccc(C)cc3Oc3cc(C)ccc32)c(=O)[nH]c1C(F)(F)F [Compound 176, N-(3,6-dimethyl-9H-xanthen-9-yl)-5-ethyl-2-oxo-6-(trifluoromethyl)-1,2-dihydropyridine-3-carboxamide] | – | – | – | 28.3 µM | 0.02 µM | – | – | – | – | – | 6.43 µM
